Assays:
activated ERK2 = activated ERK2 (Homo sapiens, UniProt P28482); test: ERK inhibition assay (spectrophotometric coupled-enzyme assay); type: biochemical; details: 10 nM activated ERK2, 65 μM ATP, 30° C.; read-out: Ki values for ERK-2
Description: Compounds were assayed for the inhibition of ERK2 by a spectrophotometric coupled-enzyme assay (Fox et al (1998) Protein Sci 7, 2249).

CDK-2/Cyclin A = CDK-2/Cyclin A (Homo sapiens, UniProt P24941); test: CDK-2 inhibition assay (coupled enzyme assay); type: biochemical; details: 25 nM CDK-2/Cyclin A, 30° C.
Description: Compounds were screened in the following manner for their ability to inhibit CDK-2 using a standard coupled enzyme assay (Fox et al (1998) Protein Sci 7, 2249).
To an assay stock buffer solution containing 0.1M HEPES 7.5, 10 mM MgCl2, 1 mM DTT, 25 mM NaCl, 2.5 mM phosphoenolpyruvate, […], 30 mg/ml pyruvate kinase, 10 mg/ml lactate dehydrogenase, 100 mM ATP, and 100 μM peptide ([…], American Peptide, Sunnyvale, Calif.) was added a DMSO solution of a compound of the present invention to a final concentration of 30 μM. The resulting mixture was incubated at 30° C. for 10 min.
The reaction was initiated by the addition of 10 μL of CDK-2/Cyclin A stock solution to give a final concentration of 25 nM in the assay. The rates of reaction were obtained by monitoring absorbance at 340 nm over a 5-minute read time at 30° C. using a BioRad Ultramark plate reader (Hercules, Calif.). The Ki values were determined from the rate data as a function of inhibitor concentration.

GSK-3β (AA 1-420) = molecular target: T1, GSK-3β (AA 1-420) (Homo sapiens, UniProt P49841); test: Ki determination for the inhibition of GSK-3 (coupled enzyme system); type: biochemical; details: 20 μM ATP, 20 nM GSK-3β, 30° C.
T1 construct: GSK-3β (AA 1-420)
T1 sequence (P49841 whole entry, the tested form may be a part): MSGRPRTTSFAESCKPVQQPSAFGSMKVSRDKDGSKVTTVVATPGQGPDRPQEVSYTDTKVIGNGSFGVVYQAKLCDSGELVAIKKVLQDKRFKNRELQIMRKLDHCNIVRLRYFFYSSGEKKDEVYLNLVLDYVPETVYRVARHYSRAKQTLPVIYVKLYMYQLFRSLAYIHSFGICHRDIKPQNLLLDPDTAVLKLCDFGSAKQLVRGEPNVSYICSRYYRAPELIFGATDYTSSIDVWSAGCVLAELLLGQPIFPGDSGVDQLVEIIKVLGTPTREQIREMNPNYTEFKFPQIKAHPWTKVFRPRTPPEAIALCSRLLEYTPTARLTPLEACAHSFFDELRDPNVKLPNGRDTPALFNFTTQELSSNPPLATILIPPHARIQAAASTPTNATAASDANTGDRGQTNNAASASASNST
In short: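 GSK-3β (AA 1-420, 20 nM) was run in a pyruvate kinase/LDH-coupled NADH assay in 100 mM HEPES pH 7.5, 10 mM MgCl2, 25 mM NaCl, 1 mM DTT, 1.5% DMSO, with 300 μM phosphopeptide substrate. Compound (0.002–30 μM) was preincubated 10 min at 30° C, then 20 μM ATP was added.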

Aurora-2 = molecular target: T2, Aurora-2 (Homo sapiens, UniProt O14965); test: Ki determination for the inhibition of Aurora-2 (coupled enzyme assay); type: biochemical; details: 70 nM Aurora-2, 30° C.
T2 sequence (O14965 1-403): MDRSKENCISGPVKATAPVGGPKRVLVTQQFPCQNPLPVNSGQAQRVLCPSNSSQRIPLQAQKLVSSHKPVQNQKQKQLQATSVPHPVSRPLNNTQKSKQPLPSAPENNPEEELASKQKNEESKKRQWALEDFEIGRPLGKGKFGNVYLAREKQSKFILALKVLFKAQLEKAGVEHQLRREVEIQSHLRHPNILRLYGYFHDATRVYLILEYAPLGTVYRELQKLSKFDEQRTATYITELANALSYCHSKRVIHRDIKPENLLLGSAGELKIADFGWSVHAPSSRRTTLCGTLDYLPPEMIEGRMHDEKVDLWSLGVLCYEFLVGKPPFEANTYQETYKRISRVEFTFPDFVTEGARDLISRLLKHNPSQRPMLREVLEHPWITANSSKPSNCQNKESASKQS
In short: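 Ki came from reaction rates plotted against inhibitor concentration, with rates taken as A340 decrease over 5 min at 30° C. Enzyme (70 nM final) was added after 10 min compound preincubation; stock buffer held […], 800 μM LRRASLG, PK/LDH coupling, pH 7.5.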

human Src kinase = molecular target: T3, human Src kinase (Homo sapiens, UniProt P12931); test: SRC inhibition assay (radioactivity-based or spectrophotometric assay); type: biochemical; details: recombinant human Src kinase; assay A or B; read-out: Ki value on SRC
T3 construct: full length recombinant human Src kinase (from Upstate Biotechnology, cat. no. 14-117); purchased Upstate Biotechnology 14-117; host or cells: baculo viral cells
T3 sequence (P12931 whole entry): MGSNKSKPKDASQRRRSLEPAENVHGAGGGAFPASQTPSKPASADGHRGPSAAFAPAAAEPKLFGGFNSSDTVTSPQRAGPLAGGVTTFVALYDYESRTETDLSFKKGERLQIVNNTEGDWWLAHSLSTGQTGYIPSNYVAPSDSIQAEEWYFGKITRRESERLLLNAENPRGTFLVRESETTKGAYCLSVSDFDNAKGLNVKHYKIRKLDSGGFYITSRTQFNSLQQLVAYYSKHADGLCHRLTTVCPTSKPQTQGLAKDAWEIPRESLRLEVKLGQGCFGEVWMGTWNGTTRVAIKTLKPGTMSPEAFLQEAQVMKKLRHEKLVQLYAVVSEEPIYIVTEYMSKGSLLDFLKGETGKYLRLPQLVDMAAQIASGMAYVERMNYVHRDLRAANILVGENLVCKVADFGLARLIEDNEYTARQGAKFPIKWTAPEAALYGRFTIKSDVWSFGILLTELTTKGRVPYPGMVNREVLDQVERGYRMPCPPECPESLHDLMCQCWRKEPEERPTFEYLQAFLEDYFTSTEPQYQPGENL
In short: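 Full-length recombinant human Src from baculovirus was used. In the radiometric format, enzyme was preincubated 10 min at 30 °C, the reaction was started with ^33P-ATP and run 20 min, then TCA-quenched and filter-counted. The alternative format monitored poly Glu-Tyr phosphorylation by NADH-coupled A340 rate. Ki came from competitive-inhibition fits.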

AKT-3 = AKT-3 (Homo sapiens, UniProt Q9Y243); test: AKT inhibition assay (coupled enzyme assay); type: biochemical; details: 45 nM AKT, 170 μM ATP, 30° C.
AKT-3, sequence (Q9Y243 whole entry, species assumed): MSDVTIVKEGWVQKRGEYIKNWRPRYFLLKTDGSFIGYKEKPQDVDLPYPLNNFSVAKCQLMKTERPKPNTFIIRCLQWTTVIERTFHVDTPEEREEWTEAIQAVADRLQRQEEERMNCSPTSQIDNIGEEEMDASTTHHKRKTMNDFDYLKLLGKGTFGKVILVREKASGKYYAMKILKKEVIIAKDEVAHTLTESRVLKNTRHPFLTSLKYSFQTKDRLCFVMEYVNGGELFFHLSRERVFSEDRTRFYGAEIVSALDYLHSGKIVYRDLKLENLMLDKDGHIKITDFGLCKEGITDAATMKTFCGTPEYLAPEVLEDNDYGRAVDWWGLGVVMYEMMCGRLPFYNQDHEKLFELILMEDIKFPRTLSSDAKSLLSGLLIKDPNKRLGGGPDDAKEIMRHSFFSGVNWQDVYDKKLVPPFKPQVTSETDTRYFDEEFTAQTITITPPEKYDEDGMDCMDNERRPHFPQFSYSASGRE
Description: Compounds were screened for their ability to inhibit AKT using a standard coupled enzyme assay (Fox et al., Protein Sci., (1998) 7, 2249). Assays were carried out in a mixture of 100 mM HEPES 7.5, 10 mM MgCl2, 25 mM NaCl, 1 mM DTT and 1.5% DMSO. Final substrate concentrations in the assay were 170 μM ATP (Sigma Chemicals) and 200 μM peptide (RPRAATF, American Peptide, Sunnyvale, Calif.). Assays were carried out at 30° C. and 45 nM AKT. Final concentrations of the components of the coupled enzyme system were 2.5 mM phosphoenolpyruvate, 300 μM NADH, 30 μg/ML pyruvate kinase and 10 μg/ml lactate dehydrogenase.
An assay stock buffer solution was prepared containing all of the reagents listed above, with the exception of AKT, DTT, and the test compound of interest. 56 μl of the stock solution was placed in a 384 well plate followed by addition of 1 μl of 2 mM DMSO stock containing the test compound (final compound concentration 30 μM). The plate was preincubated for about 10 minutes at 30° C. and the reaction initiated by addition of 10 μl of enzyme (final concentration 45 nM) and 1 mM DTT. Rates of reaction were obtained using a BioRad Ultramark plate reader (Hercules, Calif.) over a 5 minute read time at 30° C.

activated ERK2, sequence (P28482 whole entry): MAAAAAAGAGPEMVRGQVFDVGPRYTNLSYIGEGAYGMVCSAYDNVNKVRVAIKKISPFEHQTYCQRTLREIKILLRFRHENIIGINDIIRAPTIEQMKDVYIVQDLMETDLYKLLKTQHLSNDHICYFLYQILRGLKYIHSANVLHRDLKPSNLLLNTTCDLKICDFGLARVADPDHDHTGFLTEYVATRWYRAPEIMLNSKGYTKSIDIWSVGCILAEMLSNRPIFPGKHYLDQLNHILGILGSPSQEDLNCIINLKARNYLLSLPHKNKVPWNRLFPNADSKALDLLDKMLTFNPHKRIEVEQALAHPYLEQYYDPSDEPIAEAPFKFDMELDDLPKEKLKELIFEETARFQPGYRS

Row | Structure (SMILES) | Ki (activated ERK2) | Ki (CDK-2/Cyclin A) | melting point | Ki (GSK-3β (AA 1-420)) | Ki (Aurora-2) | Ki (human Src kinase) | Ki (AKT-3)
1 | N#CCc1ccc(Nc2nc(Nc3cc(C4CC4)[nH]n3)cc(-c3ccccc3)n2)cc1 [IIIc-4, [2-(4-cyanomethylphenylamino)-6-phenyl-pyrimidin-4-yl]-(5-cyclopropyl-2H-pyrazol-3-yl)-amine] | < 1 µM | < 1 µM | 294 to 297 °C | – | – | – | –
2 | CC(=O)Nc1ccc(Sc2nc(Nc3cc(C4CC4)[nH]n3)c3ccccc3n2)cc1 [IIa-36, [2-(4-Acetamido-phenylsulfanyl)-quinazolin-4-yl]-(5-cyclopropyl-2H-pyrazol-3-yl)-amine] | 1 to 20 µM | < 1 µM | – | – | – | – | –
3 | Cc1cc(Nc2nc(Nc3ccc(CC#N)cc3)nc3ccccc23)n[nH]1 [IIc-15, [2-(4-Cyanomethylphenylamino)-quinazolin-4-yl]-(5-methyl-2H-pyrazol-3-yl)-amine] | < 1 µM | < 1 µM | > 250 °C | < 0.1 µM | < 0.1 µM | < 0.1 µM | –
4 | c1ccc(Nc2nc(Nc3cc(C4CC4)[nH]n3)c3ccccc3n2)cc1 [IIc-18, (5-Cyclopropyl-2H-pyrazol-3-yl)-(2-phenylamino-quinazolin-4-yl)-amine] | 1 to 20 µM | – | 234 °C | < 0.1 µM | < 0.1 µM | < 0.1 µM | 1 to 20 µM
5 | CCc1ccc(Nc2nc(Nc3cc(C4CC4)[nH]n3)c3ccccc3n2)cc1 [IIc-25, (5-Cyclopropyl-2H-pyrazol-3-yl)-[2-(4-ethylphenylamino)-quinazolin-4-yl]-amine] | 1 to 20 µM | < 1 µM | 250 to 251 °C | < 0.1 µM | < 0.1 µM | – | 1 to 20 µM
6 | OCCc1ccc(Nc2nc(Nc3cc(C4CC4)[nH]n3)c3ccccc3n2)cc1 [IIc-27, (5-Cyclopropyl-2H-pyrazol-3-yl)-{2-[4-(2-hydroxyethyl)phenylamino]-quinazolin-4-yl}-amine] | < 1 µM | < 1 µM | 255 to 256 °C | < 0.1 µM | < 0.1 µM | – | 1 to 20 µM
7 | N#CCc1ccc(Nc2nc(Nc3cc(C4CC4)[nH]n3)c3ccccc3n2)cc1 [IIc-31, [2-(4-Cyanomethylphenylamino)-quinazolin-4-yl]-(5-cyclopropyl-2H-pyrazol-3-yl)-amine] | – | – | – | < 0.1 µM | < 0.1 µM | < 0.1 µM | 1 to 20 µM
8 | c1ccc2c(Nc3cc(C4CC4)[nH]n3)nc(Nc3ccc4[nH]ncc4c3)nc2c1 [IIc-37, (5-Cyclopropyl-2H-pyrazol-3-yl)-[2-(1H-indazol-5-ylamino)-quinazolin-4-yl]-amine] | – | – | – | < 0.1 µM | < 0.1 µM | < 0.1 µM | 1 to 20 µM
9 | COC(=O)c1cccc(Nc2nc(Nc3cc(C4CC4)[nH]n3)c3ccccc3n2)c1 [IIc-39, (5-Cyclopropyl-2H-pyrazol-3-yl)-[2-(3-methoxycarbonylphenylamino)-quinazolin-4-yl]-amine] | – | – | 228 to 231 °C | < 0.1 µM | < 0.1 µM | < 0.1 µM | 1 to 20 µM
10 | Cc1cccc(Nc2nc(Nc3cc(C4CC4)[nH]n3)c3ccccc3n2)c1C [IIc-42, (5-Cyclopropyl-2H-pyrazol-3-yl)-[2-(2,3-dimethylphenylamino)-quinazolin-4-yl]-amine] | – | – | 241 to 242 °C | < 0.1 µM | < 0.1 µM | < 0.1 µM | 1 to 20 µM
11 | Cc1cc(Nc2nc(Nc3ccc4ncsc4c3)nc3ccccc23)n[nH]1 [IIc-53, [2-(Benzothiazol-6-ylamino)-quinazolin-4-yl]-(5-methyl-2H-pyrazol-3-yl)-amine] | < 1 µM | < 1 µM | 236 to 239 °C | < 0.1 µM | < 0.1 µM | – | 1 to 20 µM

Source: patent US6653300B2, “Pyrazole compounds useful as protein kinase inhibitors” (Vertex Pharmaceuticals Incorporated, priority 2000, dated 2003)
